In one test the test system is MARCKS. Nature of the test: MARCKS immunostaining (subcellular localization). Format: cell-based, human. The note with it: 90 min at 37° C. The protocol: (§1) Cells were treated as described for the growth culve for 90 min at 37° C. Prior to MARCKS staining some cells were treated with 14 nM bisindolylmaleimide (Calbiochem, La Jolla, Calif.) for 90 min at 37° C. in order to down-regulate PKC isoforms. Cells were immunostained for PKC-α using an immunofluorescent assay kit and instructions from Research and Diagnostics (Berkley, Calif.) as described previously by Carter, et al., 1998. For MARCKS staining, cells were fixed and permeabilized as described for F-actin visualization and exposed to an anti-MARCKS mouse monoclonal IgG antibody (Upstate Biotechnology, Lake Placid, N.Y.) diluted 1:400 in 1% Bovine Serum Albumin and 0.5% nonfat dry milk (Carnation) in PBS for 1 hr at 37° C. […] Cells were rinsed, mounted and observed as described for actin staining.

The test system of test [1] is CAC-1 cells. Briefly: Retinoic acid treatment and F-actin staining with cell size measurement. Conditions: 1 μM, 90 min at 37° C.; for mean cell size relative to cells only exposed to media or ethanol: 25 cells per group; for cell enlargement and actin filament reorganization (F-actin staining): CAC-1 cells at passage 12.
In test [2] the target is T1, PKC-α (Homo sapiens, UniProt P17252).
T1 construct: Cytosolic and particulate fractions were prepared from CAC-1 cells and 30 μg of protein/lane was applied to SDS/PAGE and PKC-α detected by immunoblotting; endogenous in cells
Briefly: PKC-α Western blot of cytosolic and particulate fractions. The class given is cell-based. The note with it: CAC-1 cells; for amount of PKC-α in the cytosolic fraction / amount of PKC-α in the particulate fraction: 1 μM, 90 min. The method, then: Confluent 100 mm dishes of CAC-1 cells in the exponential phase of growth (70-80% maximum density) were treated for 90 min with media alone or 1 μM doses of all-trans or 13-cis retinoic acid, corresponding amounts of ethanol (vehcile control) or with TPA for 20 min to activate PKC-α. Cytosolic and particulate fractions of cells were isolated as described previously (Carter, et al., 1998) and changes in PKC-α were analyzed by Western blot analysis using methods described previously and a primary antibody from Transduction Laboratories (Carter, et al., 1998).
On the technique in general: In western blotting, separated proteins are transferred to a membrane and probed.

The subject of test [3] is CAC-1 cells. Briefly: Cell detachment assay. Format: cell-based, human. The note with it: 1 μM, 24 hrs at 37° C. The protocol:
CAC-1 cells were plated onto 35 mm plastic tissue culture dishes at 100,000 cells per dish and allowed to attach for 7 days. For analysis of the retinoic acid effects on cell attachment, cell detachment assays were performed using the methods of Guo, et al., 1995. Cells were exposed to media alone (controls), 1 μM 13-cis retinoic acid, […] retinoic acid or corresponding doses of ethanol alone in culture media alone (vehicle control) for 24 hrs at 37° C. prior to cell counting. The assays were performed in duplicate. Cells were rinsed twice with sterile HBSS and exposed to 0.5% trypsin/EDTA (Gibco, BRL) for 10 min with constant agitation on a rocker set at 120 rpm's. The media containing the detached cells was collected. Detached cells from each dish were counted using a hemacytometer and the mean calculated and graphed using Cricket Graph. Statistics were performed using StatMost, (DataMost Corporation, Sandy, Utah). Statistical analysis was performed using one way analysis of variance-(ANOVA).

For test [4], the target named is T1, PKC-α. Briefly: PKC-α immunostaining (subcellular localization). The class given is cell-based. Conditions: 1 μM, 90 min at 37° C. The method, then:
as §1

Another test relates to hematopoietic cells. Conditions: cited from earlier work.

This is an account of results in US20020173036A1, “Cell line and method of making and using same” (priority 2001, published 2002).

Turning to `CC1=C(/C=C/C(C)=C/C=C/C(C)=C\C(=O)O)C(C)(C)CCC1` [13-cis retinoic acid], in the test with MARCKS (1 μM), the MARCKS localization result is “MARCKS localized to the plasma membrane”. Also, in the test with CAC-1 cells [1], the “mean cell size relative to cells only exposed to media or ethanol” value is given as “twice the size”; the “cell enlargement and actin filament reorganization (F-actin staining)” value is “cells enlarged and actin filaments were apparent”. Also, on PKC-α [2], the “amount of PKC-α in the cytosolic fraction” value is listed as “slight increase” and the “amount of PKC-α in the particulate fraction” value is listed as “decrease”. The “decrease in cell detachment compared to controls” value with CAC-1 cells [3] was “around 40%”. The PKC-α localization entry at PKC-α [4] was “localize exclusively to the cytoplasm occurring predominantly in perinuclear regions”.
In the case of `CCCCCCCCCCCCCC(=O)O[C@@H]1[C@@H](C)[C@@]2(O)[C@@H](C=C(CO)C[C@]3(O)C(=O)C(C)=C[C@@H]23)[C@@H]2C(C)(C)[C@]12OC(C)=O` [TPA, 12-O-tetradecanoylphorbol-13-acetate], the “decrease in mean F-actin content” value in the test with hematopoietic cells is recorded as 32%. Besides, the “PKC-α distribution between cytosolic and particulate fractions” value at PKC-α [2] (100 nM TPA for 20 min) is on record as “most of the PKC-α was present in the particulate fraction”.
As to `CC1=C(/C=C/C(C)=C/C=C/C(C)=C/C(=O)O)C(C)(C)CCC1` [all-trans retinoic acid], the MARCKS localization result in the test with MARCKS (1 μM) is “MARCKS localized to the plasma membrane”. Also, in the test on CAC-1 cells [1], the “mean cell size relative to cells only exposed to media or ethanol” value is given as “twice the size”; the “cell enlargement and actin filament reorganization (F-actin staining)” value was “cells also enlarged and actin filaments were prominent throughout the cells”. Further, on PKC-α [2], the “amount of PKC-α in the cytosolic fraction” value is “slight increase” and the “amount of PKC-α in the particulate fraction” value is given as “decrease”. For the same molecule, the “decrease in cell detachment compared to controls” value with CAC-1 cells [3] is “around 40%”. Further, at PKC-α [4], the PKC-α localization result is listed as “localize exclusively to the cytoplasm occurring predominantly in perinuclear regions”.
Turning to bisindolylmaleimide, the MARCKS localization entry in the test with MARCKS (14 nM) is “MARCKS staining was prominent in the plasma membrane”.
